Measured values published in patent US6569809B1, “Package-mix agricultural chemical compositions having improved stability” (Monsanto Company, priority 1999, dated 2003).

What was measured:
[1] = at 20° C.; cited from earlier work
[2] = Solubility of flumioxazin in organic solvents
[3] = Chemical degradation of flumioxazin in contact with aqueous salt solution
[4] = tested on: inutade (Polygonum longisetum); test: Greenhouse tank-mix study, herbicidal effectiveness (Table 1); type: in vivo; settings: glyphosate 2160 g a.e./ha + flumioxazin 0 g/ha
Description: (§1) Tank-mix studies have shown that addition of a relatively small amount of flumioxazin to glyphosate alleviates both the above-mentioned disadvantages. Data from a tank-mix study in a greenhouse illustrating the benefit of simultaneous application of glyphosate+flumioxazin over a higher rate of glyphosate alone are presented in Table 1. Herbicide rates are given in grams per hectare (g/ha); rates shown for glyphosate (which was applied in this study as the isopropylammonium salt) are expressed as acid equivalent (a.e.). Herbicidal effectiveness is measured as percent inhibition by comparison with untreated plants, based on visual assessment by a technician trained in the art of making such assessments, at four times, namely 3, 7, 20 and 27 days after treatment (DAT). Data are presented for two dicotyledonous weed species, “inutade” (Polygonum longisetum) and “tsuyukusa” (Commelina communis), that are known to tolerate high rates of glyphosate.

[5] = tested on: tsuyukusa (Commelina communis); test: as above; type: in vivo; settings: glyphosate 2160 g a.e./ha + flumioxazin 0 g/ha
Description: as §1

[6] = Adsorption of glyphosate by colloidal hydrophilic silica (HPLC of supernatant); type: physicochemical; settings: 23% a.e. aqueous solution of glyphosate isopropylammonium salt, 20° C., 16 hours
Description: Where the water-soluble active ingredient is a salt of the herbicide glyphosate, it was initially feared that addition of colloidal hydrophilic silica might reduce herbicidal effectiveness by adsorption of glyphosate to the silica. A test was therefore conducted to determine the degree of adsorption of glyphosate by the highest concentration of colloidal hydrophilic silica likely to be used in a composition of the invention, i.e. 5% by weight, and by even higher concentrations.
The procedure for this test is to add a weighed amount of Aerosil™ COK-84 colloidal hydrophilic silica to a measured volume of glyphosate isopropylammonium salt solution of known concentration (23% a.e. by weight) in a stoppered glass bottle and agitate gently at a temperature of 20° C. for 16 hours. The solution is then centrifuged to deposit the silica, leaving a clear supematant. The supernatant is analyzed for glyphosate by HPLC. The amount of adsorption is calculated from the reduction in glyphosate concentration in the supernatant solution by comparison with the initial concentration.

SMILES	specific gravity [1]	solubility in organic solvent ([2]; benzyl acetate)	solubility in organic solvent ([2]; phenylxylylethane)	rate of chemical degradation ([3]; benzyl acetate as the organic solvent, compared with phenylxylylethane)	chemical degradation ([3]; composition of the invention, aqueous phase mono(isopropylammonium) glyphosate pH about 4.5 to about 5, even at elevated temperatures)	chemical degradation ([3]; exposed to a concentrated aqueous salt solution such as a solution of glyphosate salt for prolonged periods)	rate of degradation ([3]; pH of the aqueous phase raised (addition of a base or dibasic salt of glyphosate))	percent inhibition ([4]; 3 DAT) [%]	percent inhibition ([4]; 7 DAT) [%]	percent inhibition ([4]; 20 DAT) [%]	percent inhibition ([4]; 27 DAT) [%]	percent inhibition ([5]; 3 DAT) [%]	percent inhibition ([5]; 7 DAT) [%]	percent inhibition ([5]; 20 DAT) [%]	percent inhibition ([5]; 27 DAT) [%]	glyphosate adsorption ([6]; silica concentration 10%) [%]	glyphosate adsorption ([6]; silica concentration 20%) [%]
C#CCN1C(=O)COc2cc(F)c(N3C(=O)C4=C(CCCC4)C3=O)cc21 [flumioxazin, 2-[7-fluoro-3,4-dihydro-3-oxo-4-(2-propynyl)-2H-1,4-benzoxazin-6-yl]-4,5,6,7-tetrahydro-1H-isoindole-1,3(2H)-dione]	1.51	rather soluble	only very sparingly soluble	much more rapid	insignificant	undergo chemical degradation	significant increase										
O=C(O)CNCP(=O)(O)O [glyphosate, N-phosphonomethylglycine]								0	0	45	70	0	0	50	62	12	40
